Source: patent publication US20250129370A1, “METHOD FOR REDUCING HEPATIC TRIGLYCERIDES” (ADAERATA, LIMITED PARTNERSHIP, priority 2022, published 2025)
*: point of attachment. Decanoyl = CCCCCCCCCC(=O)*; CH2Cl = ClC*

Biological target: T1, PC7 (Homo sapiens, UniProt Q16549)
T1 construct: expressed in transfected cells; host or cells: naïve IHH cells
T1 sequence (Q16549 142-785): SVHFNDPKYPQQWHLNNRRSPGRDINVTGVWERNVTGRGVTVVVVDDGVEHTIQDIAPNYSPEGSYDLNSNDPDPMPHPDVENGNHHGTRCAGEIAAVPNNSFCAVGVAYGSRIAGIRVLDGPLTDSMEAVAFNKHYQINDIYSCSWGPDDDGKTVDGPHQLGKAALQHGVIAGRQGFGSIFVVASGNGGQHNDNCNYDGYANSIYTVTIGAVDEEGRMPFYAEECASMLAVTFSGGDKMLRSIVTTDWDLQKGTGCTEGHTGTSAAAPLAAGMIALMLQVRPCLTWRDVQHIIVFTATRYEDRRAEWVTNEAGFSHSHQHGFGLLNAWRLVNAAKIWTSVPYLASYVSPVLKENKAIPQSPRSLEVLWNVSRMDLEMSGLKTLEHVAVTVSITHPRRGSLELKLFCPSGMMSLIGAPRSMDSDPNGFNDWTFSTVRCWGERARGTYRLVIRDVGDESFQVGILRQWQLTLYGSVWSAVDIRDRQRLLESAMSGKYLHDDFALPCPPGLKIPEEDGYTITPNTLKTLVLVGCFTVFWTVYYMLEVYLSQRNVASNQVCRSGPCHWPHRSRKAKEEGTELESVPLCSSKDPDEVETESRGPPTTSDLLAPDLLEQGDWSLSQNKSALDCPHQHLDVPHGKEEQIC
Assay: s-apoB secretion in IHH cells overexpressing PC7, with pan-proprotein convertase inhibitor
Type: cell-based
Conditions: naive IHH cells overexpressing PC7 and s-apoB
Method: FIGS. 7A-l: PCSK7 can bind apoB in the ER and acts as a molecular chaperone-like facilitating its secretion, and its absence leads to a rapid degradation of apoB by the proteasome. […] (FIG. 7A) Western blot (presented on gel and graphically) of apoB100 and PC7 protein levels in WT and PCSK7^−/− IHH cells. Levels are normalized to α-tubulin. (FIG. 7B) Western blot (presented on gel and graphically) of apoB100 and PC7 protein levels over time (0, 15 and 30 minutes) in WT and PCSK7^−/− IHH cells incubated with cycloheximide (CHX) to block de novo mRNA translation. Levels are normalized to α-tubulin. (FIG. 7C-D) Western blot (presented on gel and graphically) of cellular apoB levels in WT and PCSK7^−/− IHH cells incubated with brefeldin A (BFA) that blocks exit from the endoplasmic reticulum (ER), an autophagy inhibitor 3-methyladenine (3MA), proteasome inhibitors MG132, Lactacystin, DMSO or non treated (NT) controls. (FIG. 7E) Western blot (presented on gel) of cellular apoB levels and polyubiquitinated apoB100 in WT and PCSK7^−/− IHH cells incubated with Lactacystin. (FIG. 7F) Schematic representation of apoB100 and apoB21 protein. […]

chaperone-like activity of PC7 on apoB (s-apoB secretion): did not block
Substance: Decanoyl-RVKR-CH2Cl
